{"source": "paper PMC10002220", "about": "“In Vivo Reversal of P-Glycoprotein-Mediated Drug Resistance in a Breast Cancer Xenograft and in Leukemia Models Using a Novel, Potent, and Nontoxic Epicatechin EC31” (International Journal of Molecular Sciences, 2023)", "key": {"LCC6MDR xenograft": {"test_system": "LCC6MDR xenograft", "assay": "In vivo efficacy in reversing PTX resistance in LCC6MDR tumor xenograft model", "settings": "for Doubling time: q2d x 14; for reduction in tumor volume compared to PTX alone / reduction in tumor weight compared to PTX alone: day 30", "protocol": "(A) In vivo toxicity study of EC31 alone and of its combination with PTX was conducted. BALB/c mice were randomized into five groups with five mice in each group. Body weight of BALB/c mice during treatments was measured every two days. The treatment groups included (1) solvent control (5% NMP + 5% Cremophor EL + 90% PBS to dissolve EC31 and 5% Ethanol + 5% Cremophor EL + 90% PBS to dissolve PTX), (2) PTX (12 mg/kg i.v.), (3) EC31 (30 mg/kg i.p.), (4) EC31 (30 mg/kg i.p.) + PTX (12 mg/kg i.v.), or (5) EC31 (60 mg/kg i.p.) + PTX (12 mg/kg i.v.). The administration was performed every other day 12 times (q2d x 12). The loss of body weight or appetite and treatment-related mortality were monitored and defined as toxicity. (B) BALB/c nude mice were subcutaneously xenografted with LCC6MDR. When the tumor reached 150–300 mm^3, the mice were randomized and administered once with (1) EC31 alone, (2) PTX alone, or (3) EC31 + PTX. […] The tumors were taken out, and their weights were measured. Intratumor concentration of EC31 or PTX was measured using UPLC-MS/MS, and the actual concentration of PTX or EC31 was normalized to the tumor weight. […] (C) BALB/c nude mice were subcutaneously xenografted with LCC6MDR. The treatment groups included (1) solvent, (2) PTX (12 mg/kg i.v.) alone, (3) cotreatment with EC31 (30 mg/kg i.p.) being injected 1 h prior to PTX (12 mg/kg i.v.) and with EC31 (30 mg/kg i.p.) then being given in a second injection 5 h post-PTX injection, and (4) cotreatment with EC31 (60 mg/kg i.p.) being injected 1 h prior to PTX injection (12 mg/kg i.v.). Tumor volume and body weight were monitored throughout the treatment period. There were 8 mice in each treatment group. Treatments were given as indicated by the arrows. […] At the end of LCC6MDR xenograft efficacy study (day 30), all tumors were dissected. The tumor volume, tumor weight, and doubling time were measured. The number of animal deaths was recorded during the treatment period. Statistical analysis on tumor volumes of different treatment groups was done by performing two-way ANOVA with Dunnett’s multiple comparison test after treatment period. * represents p < 0.05, ** represents p < 0.01, and *** represents p < 0.001. […] No measure is printed with it.\nHere, we tested whether EC31 could reverse P-gp-mediated PTX resistance in the LCC6MDR xenograft model (Figure 5C). The treatment was given every other day 14 times (q2d x 14) from day 0 to day 26.\nThe LCC6MDR tumor xenograft model was studied as it was previously. About 1 × 10^6 cells of LCC6MDR cells were inoculated subcutaneously (s.c.) into the rear flank of a female BALB/c nude mouse (4–6 weeks old). When a tumor of 200–250 mm^3 was formed, it was removed and cut into cubes of 1 mm^3 and was xenografted s.c. into the rear flank of another female BALB/c nude mouse. Treatments started when the tumor reached 100 mm^3. […] Tumor growth was measured with an electronic caliper on the injection day, and the tumor volume was calculated as reported previously."}, "P-gp": {"target": "P-gp (Homo sapiens, UniProt P08183)", "sequence (P08183 whole entry)": "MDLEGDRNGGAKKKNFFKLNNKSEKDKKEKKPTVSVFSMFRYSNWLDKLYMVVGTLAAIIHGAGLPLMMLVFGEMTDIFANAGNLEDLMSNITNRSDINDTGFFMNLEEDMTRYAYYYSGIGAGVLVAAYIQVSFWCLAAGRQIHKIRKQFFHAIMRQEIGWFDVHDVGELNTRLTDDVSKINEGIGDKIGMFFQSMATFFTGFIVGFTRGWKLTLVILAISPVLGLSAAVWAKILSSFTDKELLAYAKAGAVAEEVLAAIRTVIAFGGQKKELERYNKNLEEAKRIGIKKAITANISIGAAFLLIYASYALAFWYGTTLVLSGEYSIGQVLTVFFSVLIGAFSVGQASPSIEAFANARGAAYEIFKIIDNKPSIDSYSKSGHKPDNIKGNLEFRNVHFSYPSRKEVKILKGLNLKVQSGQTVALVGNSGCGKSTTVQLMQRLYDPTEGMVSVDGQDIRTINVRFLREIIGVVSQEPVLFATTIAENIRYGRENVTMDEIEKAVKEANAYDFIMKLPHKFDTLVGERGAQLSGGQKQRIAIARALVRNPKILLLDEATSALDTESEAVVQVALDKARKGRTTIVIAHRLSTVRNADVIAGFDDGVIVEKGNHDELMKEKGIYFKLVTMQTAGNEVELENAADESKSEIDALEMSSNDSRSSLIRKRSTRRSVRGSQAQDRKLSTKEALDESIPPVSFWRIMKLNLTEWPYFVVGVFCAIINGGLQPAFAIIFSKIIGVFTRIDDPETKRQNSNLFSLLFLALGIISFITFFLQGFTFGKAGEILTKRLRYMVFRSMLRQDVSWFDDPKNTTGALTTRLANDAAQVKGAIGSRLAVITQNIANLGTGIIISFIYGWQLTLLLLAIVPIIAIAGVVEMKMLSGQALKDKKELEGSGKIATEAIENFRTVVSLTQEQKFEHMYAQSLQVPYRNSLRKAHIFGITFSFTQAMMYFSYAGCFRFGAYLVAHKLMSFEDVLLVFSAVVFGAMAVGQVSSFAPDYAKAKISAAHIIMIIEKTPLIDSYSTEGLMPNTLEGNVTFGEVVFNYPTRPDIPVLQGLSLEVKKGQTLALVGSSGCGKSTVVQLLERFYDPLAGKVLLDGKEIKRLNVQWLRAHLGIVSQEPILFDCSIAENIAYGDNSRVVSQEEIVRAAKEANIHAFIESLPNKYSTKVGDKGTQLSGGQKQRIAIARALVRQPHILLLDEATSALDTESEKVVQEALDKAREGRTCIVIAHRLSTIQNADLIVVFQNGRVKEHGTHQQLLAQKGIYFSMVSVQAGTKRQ", "assay": "Vanadate-sensitive P-gp ATPase activity assay (P-gp-Glo)", "settings": "70 µM", "quoted_text": "(A) Effect of EC31 on vanadate-sensitive P-gp ATPase was studied. EC31, C25, and EGCG at different concentrations (10, 50, and 70 µM) were incubated with recombinant human P-gp microsomes and MgATP with or without sodium vanadate. After stopping the reaction, the remaining ATP level was determined by measuring the luciferase-generated luminescent signal. Vanadate-inhibitable P-gp ATPase activity was determined by calculating the luminescence signal in the samples with or without sodium vanadate. […] P-gp ATPase activity caused by compounds was normalized to basal P-gp ATPase activity (human P-gp microsome treated with DMSO) and was presented as fold change. A dashed line at 1.0-fold change represented the basal P-gp ATPase activity. […] The values in this figure were presented as mean ± standard error of mean. N = 3 independent experiments.\nP-gp ATPase activity was measured with P-gp-Glo assay system (Promega, #V3601) with human P-gp membrane vesicles as reported previously [32]. […] The reaction was initiated by adding MgATP and was then incubated at 37 °C for 1 h. […] The remaining ATP signal of luminescence was measured with a Clariostar microplate reader (BMG Labtech, Ortenberg, Germany). Vanadate-inhibitable P-gp ATPase activity was determined by calculating the luminescence signal in the samples with or without sodium vanadate."}, "[1]": {"settings": "group 3: EC31 30 mg/kg + PTX + EC31 30 mg/kg"}}, "data": [{"smiles": "COc1cc(OC)c2c(c1)O[C@H](c1ccc(OC)c(OC)c1)[C@H](OC(=O)c1ccc(F)c(NC(=O)c3cc(OC)c(OC)c(OC)c3)c1)C2", "note": "[EC31]", "values": [{"measurement": "Doubling time", "setting": "LCC6MDR xenograft; EC31 30 mg/kg i.p. (−1 h) + PTX 12 mg/kg i.v. + EC31 30 mg/kg i.p. (+5 h)", "value": 15.0, "unit": "days"}, {"measurement": "Doubling time", "setting": "LCC6MDR xenograft; EC31 60 mg/kg i.p. (−1 h) + PTX 12 mg/kg i.v.", "value": 12.4, "unit": "days"}, {"measurement": "reduction in tumor volume compared to PTX alone", "setting": "LCC6MDR xenograft; [1]", "value": 1.6, "unit": "fold"}, {"measurement": "reduction in tumor weight compared to PTX alone", "setting": "LCC6MDR xenograft; [1]", "value": 1.5, "unit": "fold"}, {"measurement": "reduction in tumor volume compared to PTX alone", "setting": "LCC6MDR xenograft; group 4: EC31 60 mg/kg + PTX", "value": 1.4, "unit": "fold"}, {"measurement": "reduction in tumor weight compared to PTX alone", "setting": "LCC6MDR xenograft; group 4: EC31 60 mg/kg + PTX", "value": 1.4, "unit": "fold"}, {"measurement": "P-gp ATPase activity, fold change relative to basal", "setting": "P-gp", "value": "≤ 2.1", "unit": "fold"}]}]}
